Target: T1, CB-1 receptor (Homo sapiens, UniProt P21554)
T1 construct: expressed in transfected cells; host or cells: HEK 293 cells (membrane preparation); cDNA obtained from Dr. Debra Kendall, University of Connecticut
Test: Human CB-1 receptor binding ([3H]SR141716A displacement)
Details: CB-1 receptor binding assay, inhibition of [3H] SR141716A binding
Experimental: Human embryonic kidney 293 (HEK 293) cells transfected with the CB-1 receptor cDNA (obtained from Dr. Debra Kendall, University of Connecticut) were harvested in homogenization buffer (10 mM EDTA, 10 mM EGTA, 10 mM Na Bicarbonate, protease inhibitors; pH=7.4), and homogenized with a Dounce Homogenizer. The homogenate was then spun at 1,000×g for 5 minutes at 4° C. The supernatant was recovered and centrifuged at 25,000×G for 20 minutes at 4° C. The pellet was then re-suspended in 10 ml of homogenization buffer and re-spun at 25,000×G for 20 minutes at 4° C. The final pellet was re-suspended in 1 ml of TME (25 mM Tris buffer (pH=7.4) containing 5 mM MgCl2 and 1 mM EDTA). A protein assay was performed and 200 μl of tissue totaling 20 μg was added to the assay.
The test compounds were diluted in drug buffer (0.5% BSA, 10% DMSO and TME) and then 25 μl were added to a deep well polypropylene plate. [^3H] SR141716A was diluted in a ligand buffer (0.5% BSA plus TME) and 25 μl were added to the plate. The plates were covered and placed in an incubator at 30° C. for 60 minutes. At the end of the incubation period 250 μl of stop buffer (5% BSA plus TME) was added to the reaction plate. […] In the morning the filters were counted on a Wallac Betaplate™ counter (available from PerkinElmer Life Sciences™, Boston, Mass.).

T1 sequence (P21554 whole entry): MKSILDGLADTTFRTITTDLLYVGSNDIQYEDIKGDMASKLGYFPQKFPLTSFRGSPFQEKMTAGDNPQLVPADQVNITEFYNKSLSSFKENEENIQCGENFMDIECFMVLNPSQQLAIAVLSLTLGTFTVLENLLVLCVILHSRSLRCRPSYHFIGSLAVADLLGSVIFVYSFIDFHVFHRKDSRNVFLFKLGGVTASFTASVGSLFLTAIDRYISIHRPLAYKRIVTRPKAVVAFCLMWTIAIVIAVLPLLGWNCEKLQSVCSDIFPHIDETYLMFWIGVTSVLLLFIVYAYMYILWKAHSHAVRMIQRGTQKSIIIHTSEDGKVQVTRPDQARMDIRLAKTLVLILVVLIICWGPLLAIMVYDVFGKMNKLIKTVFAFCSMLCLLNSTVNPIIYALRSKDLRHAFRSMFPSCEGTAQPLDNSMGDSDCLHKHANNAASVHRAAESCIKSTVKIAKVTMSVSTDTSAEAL

binding affinity: 79 nM
SMILES: Cc1cccc(CN2CCOC(c3nn(-c4ccccc4Cl)c(-c4ccc(Cl)cc4)c3C)C2)n1 (stereo not shown) [Example 5A-6, 2-[1-(2-Chlorophenyl)-5-(4-chlorophenyl)-4-methyl-1H-pyrazol-3-yl]-4-(6-methyl-pyridin-2-ylmethyl)-morpholine]

From patent US7247628B2, “Cannabinoid receptor ligands and uses thereof” (Pfizer, Inc., priority 2002, dated 2007)
